One series has as its system Haemonchus contortus. Nature of the series: Activity against Haemonchus contortus (LD99). The following applies: dose required to kill 99% of the sample of Haemonchus contortus. From the text: (§1) Exemplified compounds of Formula 1 are listed by Tables 1a and 1b, above. The activity of these compounds against Haemonchus contortus and cat fleas (Ctenocephalides felis) is summarized by Table 7, below.
The LD99 value is the dose, expressed as μg/ml, that was required to kill 99% of the sample of Haemonchus contortus.

The subject of series [1] is cat fleas (Ctenocephalides felis). As to the kind of experiment: Contact activity against cat fleas (LC50, % kill). Conditions: for % Kill: percent of a sample of cat fleas killed at a concentration of 1.26 μg/cm^2; for pest or weed control at 1.26 µg/cm2, 1.26 µg/cm2: Ctenocephalides felis, read-out: % Kill; for LC50: concentration required to kill 50% of the sample of cat fleas on contact.
Description: as §1

On to `N#C/C(=C\c1cc(Br)c[nH]1)c1ccc(Cl)cc1` [Compound 23], for which the LD99 in the series with Haemonchus contortus was 0.469 µg/mL. Moreover, in series [1], the “% Kill” value worked out at 23%. Take `CCOCn1cccc1/C=C(\C#N)c1ccc(F)c(F)c1` [Compound 62]: the LD99 in the series on Haemonchus contortus worked out at 6 µg/mL. `N#CC(=Cc1cc(Br)c[nH]1)c1cccc2ccccc12` [Compound 34, 2-(1-naphthyl)-3-(4-bromo-1H-pyrrol-2-yl)acrylonitrile]: the EC99 in the series on Haemonchus contortus is 0.813 µg/mL. Moreover, the pest or weed control at 1.26 µg/cm2, 1.26 µg/cm2 in series [1] is 21%. `N#C/C(=C\c1ccc[nH]1)c1ccc(Cl)cc1F` [Compound 48] showed an LD99 in the series on Haemonchus contortus of 2.5 µg/mL. In series [1], the “% Kill” value worked out at 5%.

With `N#C/C(=C\c1ccc[nH]1)c1ccc(F)cc1F` [Compound 69], the LD99 with Haemonchus contortus is 2.5 µg/mL. Besides, in series [1], the “% Kill” value turned out to be 5%.

In the case of `CCOCn1cccc1/C=C(\C#N)c1cccc(C)c1` [Compound 63], the LD99 in the series on Haemonchus contortus amounted to 13 µg/mL. Take `N#C/C(=C\c1ccc[nH]1)c1ccccc1-c1ccccc1` [Compound 89]: the “% Kill” value in series [1] is recorded as 2%. `N#C/C(=C\c1ccc[nH]1)c1ccccc1F` [Compound 25] came in with an LD99 in the series with Haemonchus contortus of 2.5 µg/mL. In addition, in series [1], the LC50 worked out at 0.594 μg/cm^2 and the “% Kill” value was 92%. Take `CC(C)=CCn1cccc1/C=C(\C#N)c1ccc(Cl)cc1` [Compound 80, (Z)-2-(4-chlorophenyl)-3-(1-(3-methylbut-2-enyl)-1H-pyrrol-2-yl)acrylonitrile]: the EC99 with Haemonchus contortus was above 15 µg/mL. As to `N#C/C(=C\c1ccc[nH]1)c1ccccc1` [Compound 17], in the series with Haemonchus contortus, the LD99 is 0.469 µg/mL. Besides, in series [1], the LC50 came out at 0.259 μg/cm^2 and the “% Kill” value is 98%. In turn, `N#C/C(=C\c1cc(Br)c[nH]1)c1ccc(F)cc1` [Compound 30] showed an LD99 in the series with Haemonchus contortus of 11 µg/mL. For the same molecule, the “% Kill” value in series [1] was 18%. Regarding `N#C/C(=C\c1ccc[nH]1)c1ccc(C#N)cc1` [Compound 20], in the series on Haemonchus contortus, the LD99 is 10 µg/mL. Moreover, in series [1], the “% Kill” value came to 44%. Taken in the same sequence, the figures for `N#C/C(=C\c1ccc[nH]1)c1c(F)cccc1F` [Compound 70] were 7.5 µg/mL and 17%.

`N#C/C(=C\c1cccn1Cc1ccccc1)c1ccc(Cl)cc1` [Compound 77] returned an LD99 in the series on Haemonchus contortus of 14 µg/mL. Moreover, the “% Kill” value in series [1] is given as 3%. For the molecule `N#C/C(=C\c1ccc[nH]1)c1ccccc1C#N` [Compound 37], the LD99 entry in the series with Haemonchus contortus was “— (the symbol ‘—’ indicates tested but inactive up to 15 μg/ml)”. In series [1], the “% Kill” value is 11%. On the same counts, the results for `N#C/C(=C\c1ccc[nH]1)c1ccc(F)c(F)c1` [Compound 47] are 0.75 µg/mL and 17%. On the same counts, the results for `CN(C)C(=S)n1cccc1/C=C(\C#N)c1ccc(Cl)cc1` [Compound 84] are 10 µg/mL and 19%. As to `CCOCn1cccc1/C=C(\C#N)c1ccccc1C(F)(F)F` [Compound 57], the LD99 result in the series on Haemonchus contortus was “— (the symbol ‘—’ indicates tested but inactive up to 15 μg/ml)”. The molecule `CC(C)(C)c1ccc(/C(C#N)=C/c2ccc[nH]2)cc1` [Compound 15] returned an LD99 in the series on Haemonchus contortus of 3.25 µg/mL. In series [1], the LC50 worked out at 0.478 μg/cm^2 and the “% Kill” value came out at 87%. With `Cc1ccc(/C(C#N)=C/c2ccc[nH]2)cc1` [Compound 26], in the series on Haemonchus contortus, the LD99 turned out to be 0.938 µg/mL. Moreover, the “% Kill” value in series [1] came to 69%. As to `COc1ccc(/C(C#N)=C/c2ccc[nH]2)cc1` [Compound 14], in the series on Haemonchus contortus, the LD99 was found to be 1.5 µg/mL. The “% Kill” value in series [1] is recorded as 31%.

With `N#C/C(=C\c1ccc[nH]1)c1ccc([N+](=O)[O-])cc1` [Compound 40], the LD99 result in the series with Haemonchus contortus is “— (the symbol ‘—’ indicates tested but inactive up to 15 μg/ml)”. In addition, the “% Kill” value in series [1] is given as 6%.

In turn, `N#C/C(=C\c1cccn1C(=O)OCc1ccccc1)c1ccc(Cl)cc1` [Compound 86] displayed an LD99 with Haemonchus contortus of 5.5 µg/mL. Moreover, the “% Kill” value in series [1] worked out at 20%. On to `N#C/C(=C\c1ccc[nH]1)c1ccccc1Br` [Compound 38], for which the LD99 with Haemonchus contortus worked out at 3.25 µg/mL. The “% Kill” value in series [1] is reported as 30%. With `Cn1cccc1/C=C(\C#N)c1cccc(Cl)c1` [Compound 5], the LD99 in the series on Haemonchus contortus came out at 3 µg/mL. For the same molecule, the “% Kill” value in series [1] is reported as 6%. Consider `CCOCn1cccc1/C=C(\C#N)c1ccc(F)cc1` [Compound 49], for which the LD99 in the series with Haemonchus contortus is 14 µg/mL. On the same count and under the same terms, the figure for `Cc1ccc(S(=O)(=O)n2cccc2/C=C(\C#N)c2ccc(Cl)cc2)cc1` [Compound 83] is 12 µg/mL. In turn, `N#C/C(=C\c1ccc[nH]1)c1ccc(Br)cc1` [Compound 33] registered an LD99 with Haemonchus contortus of 3 µg/mL. For the same molecule, the “% Kill” value in series [1] is 15%.

As for `N#C/C(=C\c1ccc[nH]1)c1ccccc1Cl` [Compound 24], the LD99 in the series with Haemonchus contortus amounted to 2.75 µg/mL. Further, the “% Kill” value in series [1] was 19%. Take `Cn1cccc1/C=C(\C#N)c1cccc(C(F)(F)F)c1` [Compound 22]: the LD99 with Haemonchus contortus is 5.5 µg/mL. Moreover, the “% Kill” value in series [1] was found to be 19%. In the series with Haemonchus contortus, `N#C/C(=C\c1ccc[nH]1)c1ccc(I)cc1` [Compound 36] showed an LD99 of 0.688 µg/mL. Also, the “% Kill” value in series [1] turned out to be 14%. Consider `N#C/C(=C\c1ccc[nH]1)c1ccc(Cl)cc1` [Compound 2, (Z)-2-(4-Chloro-phenyl)-3-(1H-pyrrol-2-yl)acrylonitrile], for which the EC99 in the series on Haemonchus contortus was 0.406 µg/mL. Also, in series [1], the pest or weed control at 1.26 µg/cm2, 1.26 µg/cm2 was 95% and the LC50 is 0.17 μg/cm^2. Regarding `N#C/C(=C\c1ccc[nH]1)c1ccc(C(F)(F)F)cc1` [Compound 4], the LD99 with Haemonchus contortus turned out to be 0.625 µg/mL. Moreover, in series [1], the “% Kill” value is 20%. In the series on Haemonchus contortus, `N#C/C(=C\c1cc(Br)c[nH]1)c1cccc(C(F)(F)F)c1` [Compound 12] registered an LD99 of 3.25 µg/mL. The molecule `N#C/C(=C\c1ccc[nH]1)c1cccc2ccccc12` [Compound 32, 2-(1-naphthyl)-3-(1H-pyrrol-2-yl)acrylonitrile] yielded an EC99 in the series with Haemonchus contortus of 0.234 µg/mL. For the same molecule, in series [1], the pest or weed control at 1.26 µg/cm2, 1.26 µg/cm2 stood at 42%.

Molecule `N#C/C(=C\c1ccc[nH]1)c1cccc(Br)c1` [Compound 39] gave an LD99 in the series with Haemonchus contortus of 0.938 µg/mL. The “% Kill” value in series [1] was 24%. For the molecule `Cn1cccc1/C=C(\C#N)c1ccc(C(F)(F)F)cc1` [Compound 21], in the series on Haemonchus contortus, the LD99 result is “— (the symbol ‘—’ indicates tested but inactive up to 15 μg/ml)”. In addition, the “% Kill” value in series [1] is 24%. In the series on Haemonchus contortus, `CCc1ccc(/C(C#N)=C/c2ccc[nH]2)cc1` [Compound 75] came in with an LD99 of 0.875 µg/mL. In addition, the “% Kill” value in series [1] is given as 58%. In turn, `Cc1cccc(/C(C#N)=C/c2ccc[nH]2)c1` [Compound 72] came in with an LD99 with Haemonchus contortus of 1.25 µg/mL. Moreover, the “% Kill” value in series [1] was 42%.

As to `CC(C)c1ccc(/C(C#N)=C/c2ccc[nH]2)cc1` [Compound 87], the LD99 entry in the series on Haemonchus contortus was “— (the symbol ‘—’ indicates tested but inactive up to 15 μg/ml)”. Further, the “% Kill” value in series [1] worked out at 100%. For the molecule `CCOCn1cccc1/C=C(\C#N)c1c(F)cccc1F` [Compound 61], in the series on Haemonchus contortus, the LD99 entry was “— (the symbol ‘—’ indicates tested but inactive up to 15 μg/ml)”. Take `Cc1ccccc1/C(C#N)=C/c1ccc[nH]1` [Compound 16, (Z)-2-(2-Methyl-phenyl)-3-(1H-pyrrol-2-yl)acrylonitrile]: the 99% effect level in the series on Haemonchus contortus (EC99) was put at 3.75 µg/mL. For the same molecule, in series [1], the pest or weed control at 1.26 µg/cm2, 1.26 µg/cm2 was 100% and the LC50 stood at 0.076 μg/cm^2. In the series on Haemonchus contortus, `CCOCn1cccc1/C=C(\C#N)c1ccc(Br)cc1` [Compound 51] came in with an LD99 of 7.5 µg/mL. In the case of `N#C/C(=C\c1ccc[nH]1)c1ccccc1C(F)(F)F` [Compound 90], the “% Kill” value in series [1] stood at 14%.

Consider `N#C/C(=C\c1ccc[nH]1)c1ccc2c(c1)OCO2` [Compound 19, 2-(3,4-methylenedioxy)phenyl-3-(1H-pyrrol-2-yl)acrylonitrile], for which the 99% effect level in the series with Haemonchus contortus (EC99) was put at 6 µg/mL. Besides, the pest or weed control at 1.26 µg/cm2, 1.26 µg/cm2 in series [1] is 26%. On to `CCOCn1cccc1/C=C(\C#N)c1cccc2ccccc12` [Compound 65, 2-(1-naphthyl)-3-(1-ethoxymethyl-1H-pyrrol-2-yl)acrylonitrile], for which the EC99 in the series with Haemonchus contortus was above 15 µg/mL. Consider `N#C/C(=C\c1cc(Cl)c(Cl)[nH]1)c1ccc(Cl)cc1` [Compound 3], for which the LD99 in the series on Haemonchus contortus came to 3 µg/mL. Besides, the “% Kill” value in series [1] was 15%. Regarding `N#C/C(=C\c1ccc[nH]1)c1c(F)cccc1Cl` [Compound 67], the LD99 entry in the series with Haemonchus contortus is “— (the symbol ‘—’ indicates tested but inactive up to 15 μg/ml)”. Also, the “% Kill” value in series [1] is on record as 7%.

In the series on Haemonchus contortus, `N#C/C(=C\c1ccc[nH]1)c1ccc(-c2ccccc2)cc1` [Compound 18] returned an LD99 of 7.5 µg/mL. The “% Kill” value in series [1] amounted to 46%. On the same counts, the results for `N#C/C(=C\c1cc(Br)c[nH]1)c1ccc(Cl)c(Cl)c1` [Compound 29] are 5 µg/mL and 15%. For `CCOCn1cccc1/C=C(\C#N)c1ccccc1Cl` [Compound 54], the LD99 in the series on Haemonchus contortus was 7 µg/mL. As for `CCOCn1cccc1/C=C(\C#N)c1cc(C(F)(F)F)cc(C(F)(F)F)c1` [Compound 59], the LD99 entry in the series on Haemonchus contortus is “— (the symbol ‘—’ indicates tested but inactive up to 15 μg/ml)”. For the molecule `CCOCn1cccc1/C=C(\C#N)c1ccccc1C#N` [Compound 50], the LD99 entry in the series on Haemonchus contortus was “— (the symbol ‘—’ indicates tested but inactive up to 15 μg/ml)”.

For the molecule `COc1ccccc1/C(C#N)=C/c1ccc[nH]1` [Compound 91], the “% Kill” value in series [1] was 9%. Take `CCOCn1cccc1/C=C(\C#N)c1cccc(Br)c1` [Compound 58]: the LD99 entry in the series with Haemonchus contortus was “— (the symbol ‘—’ indicates tested but inactive up to 15 μg/ml)”.

As to `CCOCn1cccc1/C=C(\C#N)c1ccc2ccccc2c1` [Compound 53, 2-(2-naphthyl)-3-(1-ethoxymethyl-1H-pyrrol-2-yl)acrylonitrile], the EC99 in the series on Haemonchus contortus was above 15 µg/mL. As to `CCOCn1cccc1/C=C(\C#N)c1c(Cl)cccc1Cl` [Compound 52], the LD99 result in the series with Haemonchus contortus was “— (the symbol ‘—’ indicates tested but inactive up to 15 μg/ml)”. As to `CCOCn1cccc1/C=C(\C#N)c1ccc(Cl)c(Cl)c1` [Compound 56], in the series on Haemonchus contortus, the LD99 is 6.5 µg/mL.

Source of the values: patent US7705038B2, “Control of parasites in animals by the use of parasiticidal 2-phenyl-3-(1H-pyrrol-2-yl)acrylonitrile derivatives” (Intervet, Inc., priority 2004, dated 2010).
